These results are taken from US4985558A, “1,4-dihydropyridine derivative” (Nikken Chemicals Co., Ltd., priority 1988, dated 1991).

SMILES strings stand for the structures. Where “and” joins values, the source holds several entries; their conditions need not be identical. Equal values may be shown once. Read-outs that look alike come from different tables or passages of the source.

The test system of data set [1] is antitumor drug sensitive cells P388/S of mouse P388 leukemia cells. In words: VCR alone in mice bearing drug sensitive P388/S leukemia (Example 13, Table 8(B)). Format: in vivo. How it is done: The compounds of this invention were administered orally after the treatment described above, and VCR was administered as described above. The progress thereof was observed and the survival days for respective animals were determined to obtain the survival ratio (T/C) % relative to the Control. The antitumor agent potentiating effect (T/V) % was determined as described above. In the Table, Compound 8 is the compound obtained in Example 8.

The subject of data set [2] is vincristine (VCR)-resistant mouse leukemia (P388/VCR) cells. In words: Antitumor agent potentiating effect in vincristine-resistant tumor bearing mouse (Example 13, oral compound, 10 days). The format is in vivo.
Data set [3] has the same test system. In words: Antitumor agent potentiating effect in vincristine-resistant tumor bearing mouse (Example 12, i.p.). Format: in vivo. As to the method: (§1) The potentiating effect of the antitumor agent (T/V) % was determined according to the formula shown below. Verapamil was employed as the positive Control compound. […] In the Tables, Compound 1 is the compound obtained in Example 1, Compound 2 that obtained in Example 2, Compound 3 that obtained in Example 3, Compound 4 that obtained in Example 4, and Compound 5 that obtained in Example 5. [formula]
The potentiating effect of the antitumor agent (T/V) % was determined as described above (Example 11). Nicardipine was employed as the positive Control compound, and was administered intraperitoneally for 10 days. […] In the Tables, Compound 6 is the compound obtained in Example 6, Compound 7 that obtained in Example 7, and Compound 8 that obtained in Example 8.

Data set [4] has the same test system. In words: Antitumor agent potentiating effect in vincristine-resistant tumor bearing mouse (Example 11, i.p. 5 days). The format is in vivo. As to the method: as §1
The next data set has as its system ICR mice. Put plainly: acute toxicity test.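 Further: intraperitoneal dosing with deaths counted over 10 days of observation.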 Conditions: mouse, in vivo. How it is done: Male 6-week-old ICR mice were divided into groups of 2 to 5 mice per group. […] The drugs to be tested were administered in varying amounts of 250 to 2000 mg/kg to 5 or 7 groups (a geometrical series of .cent.2), at a dose volume of 10 ml/kg. In the Table, the respective compounds have the same meanings as described above.

Data set [5] concerns spontaneously hypertensive rats (SHR). As to conditions: rat, in vivo, ip.
Procedure: The systolic blood pressure was measured by using spontaneously hypertensive rats (SHR), which are a model of hypertension when examine the hypotensive activities of the compounds of the present invention and the positive Control compound. The rats were warmed for 5 minutes in a warming box at 55° C., and their blood pressure then measured by a tail cuff plethysmograph. The compounds of the present invention were administered singly and intraperitoneally at a dose of 100 mg/kg and the positive Control compound was administered singly and intraperitoneally at a dose of 10 mg/kg. […] Blood pressure measurements were taken before administration and 60 minutes after administration. Nicardipine was employed as the positive Control compound.
A further data set has as its system rat rectum smooth muscle. In words: Inhibitory effects on potassium contracture in rat rectum smooth muscle. Conditions: 5 min, K contraction 5.6 to 56.0 mM, read-out: Inhibition ratio; for inhibition at 0.1 µM: 10^-7 M; for inhibition at 0.01 µM: 10^-8 M. The format is cell-based. How it is done:
Rat rectum (about 1.5 cm) was isolated and suspended in a Magnus tube. A Locke solution was employed as the nutrient solution, and a contraction of the intestinum rectum was caused by changing the potassium (K) concentration of this solution from 5.6 mmol (mM) to 56.0 mM. This contraction was a contraction through a membrane dependent Ca-channel mediated contraction based on depolarization by a K concentration change. The contraction was recorded by an FD-transducer and polygraph. The compounds of the present invention were permitted to act 5 minutes before changing the K concentration, and simultaneously with changing the K concentration. […] A judgement was made 5 minutes after changing the K concentration, and the difference in contraction before the concentration change was indicated as an inhibition % value. Verapamil and nicardipine were employed as the positive control compound .

Where [6] appears, read: VCR 30 μg/kg i.p. alone (reference = 100).
Setting [7] is: compound 100 mg/kg i.p. + VCR 30 μg/kg i.p.
The mark [8] stands for this setting: positive control 30 mg/kg + VCR 30 μg/kg.
Setting [9] is: positive control 60 mg/kg + VCR 30 μg/kg.
Where [10] appears, read: positive control 50 mg/kg i.p., 10 days + VCR 30 μg/kg.
Where [11] appears, read: positive control 75 mg/kg i.p., 10 days + VCR 30 μg/kg.
Where [12] appears, read: positive control alone 50 mg/kg i.p., 10 days.
Where [13] appears, read: positive control alone 75 mg/kg i.p., 10 days.
[14] abbreviates: compound alone 100 mg/kg i.p., no VCR.
[15] abbreviates: compound 50 mg/kg/day oral + VCR 100 μg/kg/day i.p.
Where [16] appears, read: compound 100 mg/kg/day oral + VCR 10 μg/kg/day i.p.
Where [17] appears, read: compound 100 mg/kg/day oral + VCR 30 μg/kg/day i.p.
Where [18] appears, read: compound 100 mg/kg/day oral + VCR 100 μg/kg/day i.p.
Where [19] appears, read: compound 200 mg/kg/day oral + VCR 10 μg/kg/day i.p.
Setting [20] is: compound 200 mg/kg/day oral + VCR 30 μg/kg/day i.p.
Setting [21] is: compound 200 mg/kg/day oral + VCR 100 μg/kg/day i.p.
Where [22] appears, read: compound 300 mg/kg/day oral + VCR 10 μg/kg/day i.p.
[23] abbreviates: compound 300 mg/kg/day oral + VCR 30 μg/kg/day i.p.

With `CC[C@]1(O)C[C@H]2CN(CCc3c([nH]c4ccccc34)[C@@](C(=O)OC)(c3cc4c(cc3OC)N(C=O)[C@H]3[C@@](O)(C(=O)OC)[C@H](OC(C)=O)[C@]5(CC)C=CCN6CC[C@]43[C@@H]65)C2)C1` [VCR, vincristine, reference compound], the “Survival Days (Mean ± SD)” value in data set [1] (VCR 10 μg/kg/day alone) is reported as 11.8 ± 0.8 days; in data set [1] (VCR 30 μg/kg/day alone), 13.3 ± 0.9 days; in data set [1] (VCR 100 μg/kg/day alone) it was 15.2 ± 0.8 days; in data set [2] (VCR 10 μg/kg/day i.p. alone) it was 9.4 ± 0.7 days; in data set [2] (VCR 30 μg/kg/day i.p. alone), 10.3 ± 1.5 days; in data set [2] (VCR 100 μg/kg/day i.p. alone), 10.4 ± 0.9 days. Moreover, the “Survival Days (Mean ± SD)” value was 11.4 ± 1.0 days and 9.8 ± 0.8 days and 11.0 ± 1.8 days in data set [3] (VCR 30 μg/kg i.p. alone); 12.5 ± 1.4 days and 10.5 ± 0.8 days and 11.3 ± 1.0 days and 11.8 ± 1.3 days in data set [4] (VCR 30 μg/kg i.p. alone). Besides, the “Survival ratio T/C” value came out at 144% in data set [1] (VCR 10 μg/kg/day alone); 162% in data set [1] (VCR 30 μg/kg/day alone); 185% in data set [1] (VCR 100 μg/kg/day alone); 99% in data set [2] (VCR 10 μg/kg/day i.p. alone); 100% in data set [3] (VCR 30 μg/kg i.p. alone); 104% in data set [4] (VCR 30 μg/kg i.p. alone). In addition, the “Potentiating effect T/V” value in data set [2] (VCR 10 μg/kg/day i.p. alone (reference = 100)), in data set [2] (VCR 30 μg/kg/day i.p. alone (reference = 100)), in data set [2] (VCR 100 μg/kg/day i.p. alone (reference = 100)), in data set [3] (setting [6]) and in data set [4] (setting [6]) was 100% each time.

Consider `CCc1ccc(COC(=O)C2=C(C)NC(C)=C(C(=O)OCc3ccc(CC)cn3)C2C2=COCCO2)nc1` [Compound 5, bis[2-(5-ethylpyridyl)methyl]4-[2-(5,6-dihydro-p-dioxinyl)-]2,6-dimethyl-1,4-dihydropyridine-3,5-dicarboxylate], for which, in the data set with ICR mice, the Mortality is 0/2 and 0/3. Also, in data set [4] (setting [7]), the “Potentiating effect T/V” value came out at 131%, the “Survival Days (Mean ± SD)” value was found to be 14.8 ± 1.2 days and the “Survival ratio T/C” value was found to be 136%. Further, in data set [5] (100 mg/kg), the Blood pressure change is -34 mmHg and the “Systolic Blood Pressure 60 minutes after administration” value (“Systolic Blood Pressure 60 minutes” for short) is listed as 187 mmHg.

Regarding `COc1ccc(CCN(C)CCCC(C#N)(c2ccc(OC)c(OC)c2)C(C)C)cc1OC` (stereo not drawn) [Verapamil, reference compound], in the data set on rat rectum smooth muscle, the inhibition at 0.1 µM came out at 50.2% and the inhibition at 0.01 µM came out at 13.6%. In data set [4] (setting [8]), the “Potentiating effect T/V” value turned out to be 121%, the “Survival Days (Mean ± SD)” value was 14.3 ± 1.6 days and the “Survival ratio T/C” value amounted to 134%. In data set [4] (setting [9]), the “Potentiating effect T/V” value was determined as 130%, the “Survival Days (Mean ± SD)” value was 15.3 ± 0.5 days and the “Survival ratio T/C” value was 143%.

As for `CC1=C(C(=O)OCCc2ccccn2)C(C2=COCCO2)C(C(=O)OCCc2ccccn2)=C(C)N1` [Compound 4, bis[2-(2-pyridyl)ethyl]4-[2-(5,6-dihydro-p-dioxinyl)]-2,6-dimethyl-1,4-dihydropyridine-3,5-dicarboxylate], in the data set with rat rectum smooth muscle, the inhibition at 0.1 µM worked out at 5.2% and the inhibition at 0.01 µM is -6.9%. Also, in data set [4] (setting [7]), the “Potentiating effect T/V” value is recorded as 121%, the “Survival Days (Mean ± SD)” value is 13.7 ± 1.6 days and the “Survival ratio T/C” value was 126%.

In the case of `COC(=O)C1=C(C)NC(C)=C(C(=O)OCCN(C)Cc2ccccc2)C1c1cccc([N+](=O)[O-])c1` (stereo not drawn) [Nicardipine, reference compound], in data set [3] (setting [10]), the “Potentiating effect T/V” value was found to be 112%, the “Survival Days (Mean ± SD)” value was determined as 12.3 ± 0.8 days and the “Survival ratio T/C” value is reported as 128%. Also, in data set [3] (setting [11]), the “Potentiating effect T/V” value was 125%, the “Survival Days (Mean ± SD)” value is listed as 13.7 ± 1.2 days and the “Survival ratio T/C” value turned out to be 143%. In data set [3] (setting [12]), the “Survival Days (Mean ± SD)” value came out at 10.6 ± 1.5 days and the “Survival ratio T/C” value stood at 110%. Besides, in data set [3] (setting [13]), the “Survival Days (Mean ± SD)” value came out at 11.2 ± 1.1 days and the “Survival ratio T/C” value was 117%. In addition, in the data set with rat rectum smooth muscle, the inhibition at 0.01 µM was determined as 73.1%. For the same molecule, in data set [5] (10 mg/kg), the Blood pressure change is on record as -122 mmHg and the “Systolic Blood Pressure 60 minutes” value came to 86 mmHg.

Turning to `CC1=C(C(=O)OCc2cccnc2)C(C2=CSCCS2)C(C(=O)OCc2cccnc2)=C(C)N1` [Compound 7, bis(3-pyridylmethyl) 4-[2-(5,6-dihydro-1,4-dithiinyl)]-2,6-dimethyl-1,4-dihydropyridine-3,5-dicarboxylate], in data set [3] (setting [7]), the “Potentiating effect T/V” value turned out to be 118%, the “Survival Days (Mean ± SD)” value was 13.5 ± 0.8 days and the “Survival ratio T/C” value came out at 131%. Moreover, in data set [3] (setting [14]), the “Survival Days (Mean ± SD)” value is recorded as 11.0 ± 0.6 days and the “Survival ratio T/C” value was 107%. For the same molecule, in data set [5] (100 mg/kg), the Blood pressure change is reported as -38 mmHg and the “Systolic Blood Pressure 60 minutes” value stood at 189 mmHg.

For `CC1=C(C(=O)OCc2ccncc2)C(C2=C(C)SCCS2)C(C(=O)OCc2ccncc2)=C(C)N1` [Compound 8, bis(4-pyridylmethyl) 4-[2-(3-methyl-5,6-dihydro-1,4-dithiinyl)-]2,6-dimethyl-1,-4-dihydropyridine-3,5-dicarboxylate], the “life prolonging effect compared with VCR alone in P388/S” value in data set [2] (combination with VCR, P388/VCR, Table 8) was “has an effect comparable to the prolonging effect when VCR is administered alone to P388/S which is a vincristine-sensitive clone (Table 8), thus completely overcoming the VCR resistance”. Moreover, the “Potentiating effect T/V” value in data set [2] (setting [15]) stood at 120%; in data set [2] (setting [16]), 120%; in data set [2] (setting [17]), 118%; in data set [2] (setting [18]) it was 130%; in data set [2] (setting [19]), 131%; in data set [2] (setting [20]), 139%. For the same molecule, the “Potentiating effect T/V” value came out at 156% in data set [2] (setting [21]), 144% in data set [2] (setting [22]), 149% in data set [2] (setting [23]) and 138% in data set [3] (setting [7]). Moreover, the “Survival Days (Mean ± SD)” value is reported as 12.5 ± 1.6 days in data set [2] (setting [15]); 11.3 ± 0.8 days in data set [2] (setting [16]); 12.2 ± 1.2 days in data set [2] (setting [17]); 13.5 ± 1.4 days in data set [2] (setting [18]); 12.3 ± 0.5 days in data set [2] (setting [19]); 14.3 ± 1.0 days in data set [2] (setting [20]). In addition, the “Survival Days (Mean ± SD)” value in data set [2] (setting [21]) was found to be 16.2 ± 2.4 days; in data set [2] (setting [22]), 13.5 ± 0.5 days; in data set [2] (setting [23]) it was 15.3 ± 1.5 days; in data set [3] (setting [7]), 13.5 ± 0.8 days; in data set [3] (setting [14]), 9.7 ± 1.0 days. For the same molecule, the “Survival ratio T/C” value was determined as 132% in data set [2] (setting [15]); 119% in data set [2] (setting [16]); 128% in data set [2] (setting [17]); 142% in data set [2] (setting [18]); 129% in data set [2] (setting [19]); 151% in data set [2] (setting [20]). The “Survival ratio T/C” value in data set [2] (setting [21]) came to 171%; in data set [2] (setting [22]), 142%; in data set [2] (setting [23]), 161%; in data set [3] (setting [7]), 138%; in data set [3] (setting [14]), 99%. The same molecule had a Blood pressure change in data set [5] (100 mg/kg) of -11 mmHg. In addition, in data set [5] (100 mg/kg), the “Systolic Blood Pressure 60 minutes” value is 187 mmHg.
